target: T1, Androgen Receptor (AR) (Homo sapiens, UniProt P10275, T878A); experiment: LNCaP Androgen Receptor Down-regulation Cell Assay (immunofluorescence end point); assay type: cell-based; settings: LNCaP prostate carcinoma cells, compound incubation 20-22 hours, 50% reduction of the AR signal; read-out: Androgen Receptor Down-regulation Assay (a) IC50/μM
T1 construct: cell based immuno-fluorescence assay using the LNCaP prostate epithelial cell line; endogenous in cells; host or cells: LNCaP clone FGC (ATCC CRL-1740)
T1 sequence (P10275 1-920 T878A): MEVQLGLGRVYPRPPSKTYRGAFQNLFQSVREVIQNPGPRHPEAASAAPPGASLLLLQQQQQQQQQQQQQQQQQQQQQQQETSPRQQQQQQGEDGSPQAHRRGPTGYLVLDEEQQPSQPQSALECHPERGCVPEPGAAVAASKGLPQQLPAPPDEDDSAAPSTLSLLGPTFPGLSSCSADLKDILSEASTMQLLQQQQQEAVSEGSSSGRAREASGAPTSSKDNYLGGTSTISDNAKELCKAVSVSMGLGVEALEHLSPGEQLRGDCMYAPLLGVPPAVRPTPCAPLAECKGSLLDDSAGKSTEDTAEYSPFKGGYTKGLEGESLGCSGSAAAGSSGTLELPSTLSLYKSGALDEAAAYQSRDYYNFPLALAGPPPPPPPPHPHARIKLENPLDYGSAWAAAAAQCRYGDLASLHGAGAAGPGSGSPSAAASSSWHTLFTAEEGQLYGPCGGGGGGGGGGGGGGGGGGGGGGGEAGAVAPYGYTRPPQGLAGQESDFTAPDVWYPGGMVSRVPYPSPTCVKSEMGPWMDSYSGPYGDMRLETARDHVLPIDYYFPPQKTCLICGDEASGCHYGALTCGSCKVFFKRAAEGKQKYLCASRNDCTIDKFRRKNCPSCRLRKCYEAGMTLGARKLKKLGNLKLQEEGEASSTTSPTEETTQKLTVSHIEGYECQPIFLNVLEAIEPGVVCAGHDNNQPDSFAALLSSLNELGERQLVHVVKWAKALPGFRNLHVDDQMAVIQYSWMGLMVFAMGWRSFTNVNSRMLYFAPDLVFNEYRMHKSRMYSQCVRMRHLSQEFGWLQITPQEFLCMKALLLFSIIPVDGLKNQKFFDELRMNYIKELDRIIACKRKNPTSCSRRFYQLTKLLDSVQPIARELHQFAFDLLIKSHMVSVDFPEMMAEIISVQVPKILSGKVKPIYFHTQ
Procedure: The ability of compounds to reduce Androgen Receptor (AR) numbers was assessed in a cell based immuno-fluorescence assay using the LNCaP prostate epithelial cell line.
a) LNCaP Androgen Receptor Down-regulation Cell Assay
A 5 ml volume of Growth Medium was added to each flask (as above except that 5% (v/v) charcoal stripped FBS (HyClone Code no. SH30068.03) was included instead of 10% (v/v) FBS). Cells were syringed at least twice using a sterile 18G×1.5″ (1.2×40 mm) broad gauge needle and cell density was measured using a haemocytometer.
Test data reported herein was generated using two different compounds preparation and dosing methods. In method (1) a 10 mM compound stock solution in 100% (v/v) DMSO was serially diluted in 4-fold steps in 100% (v/v) DMSO using a Thermo Scientific Matrix SerialMate. The diluted compounds were then further diluted 1 in 30 in assay media using a Thermo Scientific Matrix PlateMate and a 10 μl aliquot of this dilution was dosed to cells manually using a multi-channel pipette. In method (2) starting with a 10 mM compound stock solution, the Labcyte Echo 550 was used to generate a compound concentration response set diluted in 30 μl of assay media. The Echo 550 is a liquid handler that uses acoustic technology to perform direct microplate-to-microplate transfers of DMSO compound solutions. The system can be programmed to transfer volumes as low as […] in multiple increments between microplates and in so doing generates a serial dilution of compound which is then back-filled to normalise the DMSO concentration across the dilution range. A 10 μl volume of diluted compound is then dosed to cells using a Thermo Scientific Matrix PlateMate.
Plates were incubated overnight at 37° C., 5% CO2. Wells were then dosed with compound prepared by one of the 2 methods above and further incubated for 20-22 hours at 37° C., 5% CO2. […] This fixative solution was removed and cells were washed with 250 μl of PBS/0.05% (v/v) Tween 20 (PBST) using an automated plate washer. This process was then repeated twice more.
Immunostaining was performed at room temperature. Cells were permeabilised by the addition of 35 μl of PBS containing 0.5% Tween 20 and incubated for 1 hour at room temperature. Permeabilisation solution was removed and cells were washed with 250 μl of PBST using an automated plate washer. This process was then repeated twice more. 35 μl of Blocking Solution (PBST containing 3% (w/v) Marvel dried skimmed milk (Nestle)) was added to each well and plates were incubated at room temperature for a minimum of 1 hour. […] Then this primary antibody solution was removed from the wells followed by 3×100 μl PBST washes using a plate washer. […] Henceforth, wherever possible, plates were protected from light exposure. The plates were incubated for 1 hour and then the secondary antibody solution was removed from the wells followed by 3×100 ul PBST washes using a plate washer. Then 50 μl of PBST was added to each well and plates were covered with a black plate seal and stored at 4° C. before being read. Plates were read within six hours of completing the immunostaining.
The Green Fluorescent AR-associated signal in each well was measured using an Acumen Explorer HTS Reader (TTP Labtech Ltd., Cambridge). […] The instrument is a laser-scanning fluorescence microplate cytometer which samples the well at regular intervals and uses threshold algorithms to identify all fluorescent intensities above the solution background without the need to generate and analyse an image. These fluorescent objects can be quantified and provide a measure of the AR levels in cells. Fluorescence dose response data obtained with each compound was exported into a suitable software package (such as Origin) to perform curve fitting analysis. Down-regulation of AR levels was expressed as an IC50 value.

Structure (SMILES)	DC50 [µM]
Fc1ccc2c(CN3CCN(c4ccc5nnc(C(F)(F)F)n5n4)CC3)c[nH]c2c1 [Example 284]	0.98
FC(F)c1nnc2ccc(N3CCN(Cc4csc5ccccc45)CC3)nn12 [Example 264]	0.95
N#Cc1ccc(CCN2CCN(c3ccc4nnc(C(F)(F)F)n4n3)CC2)cc1 [Example 235]	1.9
COc1ccc(C2(O)CCN(c3ccc4nnc(C(F)(F)F)n4n3)CC2)cn1 [Example 321, 4-(6-methoxypyridin-3-yl)-1-[3-(trifluoromethyl)[1,2,4]triazolo[4,3-b]pyridazin-6-yl]piperidin-4-ol]	8
FC(F)(F)COCC1CCN(c2ccc3nnc(C(F)(F)F)n3n2)CC1 [Example 482]	1.8
COc1ccc(F)c(CN2CCN(c3ccc4nnc(C(F)F)n4n3)CC2)c1 [Example 258]	6.4
Cc1ccccc1N1CCN(c2ccc3nnc(C(F)(F)F)n3n2)CC1 [Example 32, 6-[4-(2-methylphenyl)piperazin-1-yl]-3-(trifluoromethyl)-[1,2,4]triazolo[4,3-b]pyridazine]	1.6
Fc1cccc(OCC2CN(c3ccc4nnc(C(F)(F)F)n4n3)C2)c1 [Example 490]	5.9
Fc1ccccc1OCC1CCN(c2ccc3nnc(C(F)(F)F)n3n2)CC1 [Example 467]	4.9
Cn1nccc1CCOc1ccc(OC2CCN(c3ccc4nnc(C(F)(F)F)n4n3)CC2)cc1 [Example 441]	0.22
CS(=O)(=O)c1ccccc1CN1CCCN(c2ccc3nnc(C(F)(F)F)n3n2)CC1 [Example 164, 6-[4-[(2-methylsulfonylphenyl)methyl]-1,4-diazepan-1-yl]-3-(trifluoromethyl)-[1,2,4]triazolo[4,3-b]pyridazine]	1.7
COc1cccc(CN2CC3CN(c4ccc5nnc(C(F)(F)F)n5n4)CC3C2)c1 (stereo not drawn) [Example 194, 6-[2-[(3-methoxyphenyl)methyl]-1,3,3a,4,6,6a-hexahydropyrrolo[3,4-c]pyrrol-5-yl]-3-(trifluoromethyl)-[1,2,4]triazolo[4,3-b]pyridazine]	2.4

Other lines, results leading:

DC50 [µM]	Structure (SMILES)
1.6	OC1(c2ccccc2F)CCN(c2ccc3nnc(C(F)(F)F)n3n2)CC1 [Example 549]
3.8	Fc1cc(CN2CCN(c3ccc4nnc(C(F)F)n4n3)CC2)cc(F)c1F [Example 818]
8.4	FC(F)(F)c1nnc2ccc(N3CC4CN(Cc5ccccn5)CC4C3)nn12 (stereo not drawn) [Example 786]
0.56	N#Cc1cnn(CCOc2ccc(C3CCN(c4ccc5nnc(C(F)(F)F)n5n4)CC3)cc2)c1 [Example 850]
20	C[C@@H]1CN(c2ccc3nnc(C(F)(F)F)n3n2)CCN1Cc1cc(Br)cnc1F [Example 835]
2	Fc1cccc(CN2CCN(c3ccc4nnc(C(F)F)n4n3)CC2)c1C(F)F [Example 782, 3-(difluoromethyl)-6-[4-[2-(difluoromethyl)-3-fluorobenzyl]piperazin-1-yl][1,2,4]triazolo[4,3-b]pyridazine]
1.6	COc1ccc(CN2CC3CN(c4ccc5nnc(C(F)(F)F)n5n4)CC3C2)cn1 (stereo not drawn) [Example 793]
6.3	COCCN(C)C(=O)c1ccc(N2CCN(c3ccc4nnc(C(F)(F)F)n4n3)CC2)cc1 [Example 751]
3.3	C[C@@H]1CN(c2ccc3nnc(C(F)(F)F)n3n2)CCN1Cc1ccc(F)cc1 [Example 568]
2	N#Cc1ccc(O[C@@H]2CCN(c3ccc4nnc(C(F)(F)F)n4n3)C2)cc1 [Example 580]
0.92	COCCN(C)C(=O)COc1ccc(C2CCN(c3ccc4nnc(C(F)(F)F)n4n3)CC2)cc1 [Example 851, N-(2-methoxyethyl)-N-methyl-2-[4-[1-[3-(trifluoromethyl)[1,2,4]triazolo[4,3-b]pyridazin-6-yl]piperidin-4-yl]phenoxy]acetamide]
0.67	CN(C)CCCOc1cccc(C2CCN(c3ccc4nnc(C(F)(F)F)n4n3)CC2)c1 [Example 670]
